Assays:
[1] = system: PC12; experiment: in vitro killing activity; assay type: cell-based, Rat; settings: 120 time of incubation
Description: (§1) Different concentrations of compounds CPT-1, CPT-2, CPT-3, CPT-4, Dxd (MedChem Express, Cat #: HY-13631D) and SN38 (MedChem Express, Cat #: HY-13704) were used to treat different human tumor cell lines, mice tumor cell lines, rat tumor cell lines or dog tumor cell lines cultured in a cell culture plate, respectively. And the killing activity was detected after 72 h-120 h incubation by IncuCyte (Sartorius AG, IncuCyte® S3) or MicroplateReader.

[2] = system: L6; experiment: in vitro killing activity; assay type: cell-based, Rat; settings: 120 h incubation
Description: as §1

[3] = system: DCOL1 (S+L−); experiment: in vitro killing activity; assay type: cell-based, Dog; settings: 120 time of incubation
Description: as §1

[4] = system: D17; experiment: in vitro killing activity; assay type: cell-based, Dog; settings: 120 time of incubation
Description: as §1

[5] = system: MP-1092-1; experiment: in vitro killing activity; assay type: cell-based, Dog; settings: 120 time of incubation
Description: as §1

[6] = system: MP-1044-1; experiment: in vitro killing activity; assay type: cell-based, Dog; settings: 72 time of incubation
Description: as §1

[7] = system: CMT-U27; experiment: in vitro killing activity; assay type: cell-based, Dog; settings: 120 time of incubation
Description: as §1

[8] = system: MP-0094-3; experiment: in vitro killing activity; assay type: cell-based, Dog; settings: 120 time of incubation
Description: as §1

[9] = system: MP-0094-2; experiment: in vitro killing activity; assay type: cell-based, Dog; settings: 120 time of incubation
Description: as §1

[10] = system: HuH-7; experiment: in vitro killing activity; assay type: cell-based, Human; settings: 120 h incubation
Description: as §1

[11] = system: A-431; experiment: in vitro killing activity; assay type: cell-based, Human; settings: 120 time of incubation
Description: as §1

[12] = system: SKOV-3; experiment: in vitro killing activity; assay type: cell-based, Human; settings: 120 time of incubation
Description: as §1

[13] = system: NCI-H69; experiment: in vitro killing activity; assay type: cell-based, Human; settings: 120 time of incubation
Description: as §1

[14] = system: HCC1954; experiment: in vitro killing activity; assay type: cell-based, Human; settings: 120 time of incubation
Description: as §1

[15] = system: U-2-OS; experiment: in vitro killing activity; assay type: cell-based, Human; settings: 120 time of incubation
Description: as §1

[16] = system: NCI-H1781; experiment: in vitro killing activity; assay type: cell-based, Human; settings: 120 time of incubation
Description: as §1

[17] = system: BxPC-3; experiment: in vitro killing activity; assay type: cell-based, Human; settings: 120 time of incubation
Description: as §1

[18] = system: BT474; experiment: in vitro killing activity; assay type: cell-based, Human; settings: 120 time of incubation
Description: as §1

[19] = system: SW620; experiment: in vitro killing activity; assay type: cell-based, Human; settings: 120 h incubation
Description: as §1

[20] = system: LOVO; experiment: in vitro killing activity; assay type: cell-based, Human; settings: 120 h incubation
Description: as §1

[21] = system: SW156; experiment: in vitro killing activity; assay type: cell-based, Human; settings: 120 time of incubation
Description: as §1

[22] = system: OVKATE; experiment: in vitro killing activity; assay type: cell-based, Human; settings: 120 time of incubation
Description: as §1

[23] = system: NCI-H226; experiment: in vitro killing activity; assay type: cell-based, Human; settings: 120 h incubation
Description: as §1

[24] = system: Panc 02.03; experiment: in vitro killing activity; assay type: cell-based, Human; settings: 120 time of incubation
Description: as §1

[25] = system: NCI-H1975; experiment: in vitro killing activity; assay type: cell-based, Human; settings: 120 time of incubation
Description: as §1

[26] = system: NCI-N87; experiment: in vitro killing activity; assay type: cell-based, Human; settings: 120 time of incubation
Description: as §1

[27] = system: Hela; experiment: in vitro killing activity; assay type: cell-based, Human; settings: 120 h incubation
Description: as §1

[28] = system: NCI-H2030; experiment: in vitro killing activity; assay type: cell-based, Human; settings: 120 time of incubation
Description: as §1

[29] = system: HS-746T; experiment: in vitro killing activity; assay type: cell-based, Human; settings: 120 time of incubation
Description: as §1

[30] = system: PC-3; experiment: in vitro killing activity; assay type: cell-based, Human; settings: 120 time of incubation
Description: as §1

[31] = system: B16F10; experiment: in vitro killing activity; assay type: cell-based, Mice; settings: 75 time of incubation
Description: as §1

[32] = system: MC38; experiment: in vitro killing activity; assay type: cell-based, Mice; settings: 120 time of incubation
Description: as §1

[33] = system: CT26; experiment: in vitro killing activity; assay type: cell-based, Mice; settings: 96 time of incubation
Description: as §1

[34] = system: Pgp; settings: cited from earlier work
[35] = system: A431 cells; experiment: anti-tumor activity in A431 xenograft model; assay type: in vivo, A431 xenograft in B-NDG mice; settings: 10 mg/kg i.v. BIW x4
Description: (§2) The lengths of the long axis and the short axis of the tumor were measured and the volume of the tumor was calculated as 0.5×(long axis)×(short axis)2. […] Ti is the average tumor volume in the treatment group on day i. T0 is the average tumor volume in the treatment group on day zero. Vi is the average tumor volume in the control group on day i. V0 is the average tumor volume in the control group on day zero. T-test was performed for statistical analysis. […] P<0.05 is a threshold to indicate significant difference. The body weights of the mice were also measured throughout the entire administration period.
The ADCs were tested for their effects on tumor growth in vivo in a xenograft model of epidermoid carcinoma. Specifically, about 1×10^6 A431 cells were injected subcutaneously in B-NDG mice. When the tumors in the mice reached a volume of about 200 mm^3, the mice were randomly placed into different groups based on tumor volume. The mice were then injected with PBS, antibody, or ADCs by intravenous (i.v.) administration.

[36] = system: NCI-H292 cells; experiment: anti-tumor activity in NCI-H292 xenograft model; assay type: in vivo, NCI-H292 xenograft in B-NDG mice; settings: 10 mg/kg i.v. BIW x2
Description: as §2
The antibody or ADCs were tested for their effects on tumor growth in vivo in a xenograft model of lung cancer. Specifically, about 5×10^6 NCI-H292 cells were injected subcutaneously in B-NDG mice. When the tumors in the mice reached a volume of about 300 mm^3, the mice were randomly placed into different groups based on tumor volume. The mice were then injected with PBS, antibody, or ADCs by intravenous (i.v.) administration.

CC[C@@]1(O)C(=O)OCc2c1cc1n(c2=O)Cc2c-1nc1cc(F)c(C)c3c1c2[C@@H](NC(=O)CO)CC3 [Dxd, reference compound]
IC50 [1]: 9.19 nM | IC50 [2]: 13.8 nM | IC50 [3]: 9.05 nM | IC50 [4]: 6.08 nM | IC50 [5]: 7.13 nM | IC50 [6]: 41.7 nM | IC50 [7]: 3.37 nM | IC50 [8]: 22 nM | IC50 [9]: 9.67 nM | IC50 [10]: 1.39 nM | IC50 [11]: 28.1 nM | IC50 [12]: 16.5 nM | IC50 [13]: 0.299 nM | IC50 [14]: 3.31 nM | IC50 [15]: 41.9 nM | IC50 [16]: 0.724 nM | IC50 [17]: 1.87 nM | IC50 [18]: 10.9 nM | IC50 [19]: 3.89 nM | IC50 [20]: 8.65 nM | IC50 [21]: 1.84 nM | IC50 [22]: 12.3 nM | IC50 [23]: 22.9 nM | IC50 [24]: 3.18 nM | IC50 [25]: 9.91 nM | IC50 [26]: 7.03 nM | IC50 [27]: 6.69 nM | IC50 [28]: 6.43 nM | IC50 [29]: 1.05 nM | IC50 [30]: 6.4 nM | IC50 [31]: 26.2 nM | IC50 [32]: 38.5 nM | IC50 [33]: 94.2 nM | Pgp substrate [34]: Pgp substrates

CCc1c2c(nc3ccc(O)cc13)-c1cc3c(c(=O)n1C2)COC(=O)[C@]3(O)CC [SN38, reference compound]
IC50 [1]: 5.66 nM | IC50 [2]: 20.8 nM | IC50 [10]: 2.41 nM | IC50 [19]: 4.6 nM | IC50 [20]: 10.2 nM | IC50 [23]: 20.4 nM | IC50 [25]: 13.2 nM | IC50 [26]: 7.39 nM | IC50 [27]: 6.61 nM | Pgp substrate [34]: Pgp substrates

Sacituzumab govitecan: humanized anti-TROP2 monoclonal antibody-drug conjugate from Immunomedics, Inc
Tumor volume Day 17 [35]: 682 ± 71 mm^3 | Tumor volume Day 31 [35]: 1554 ± 144 mm^3 | Tumor volume Day 0 ([35]; day of grouping (baseline)): 197 ± 6 mm^3 | Tumor volume Day 21 [36]: 428 ± 51 mm^3 | Tumor volume Day 39 [36]: 893 ± 62 mm^3 | Tumor volume Day 0 ([36]; day of grouping (baseline)): 297 ± 11 mm^3

— patent US20260315611A1, “LINKER COMPOUNDS AND LIGAND-DRUG CONJUGATES, PREPARATION METHODS AND USES THEREOF” (Biocytogen Pharmaceuticals (Beijing) Co., Ltd., priority 2023, published 2026)
